# Data from US10138260B2, “Compounds of phosphinanes and azaphosphinanes, a process for their preparation and pharmaceutical compositions containing them” (LES LABORATOIRES SERVIER, priority 2016, dated 2018).
# Molecular target: T1, TAFIa (Homo sapiens, UniProt Q96IY4)
# T1 sequence (Q96IY4 115-423): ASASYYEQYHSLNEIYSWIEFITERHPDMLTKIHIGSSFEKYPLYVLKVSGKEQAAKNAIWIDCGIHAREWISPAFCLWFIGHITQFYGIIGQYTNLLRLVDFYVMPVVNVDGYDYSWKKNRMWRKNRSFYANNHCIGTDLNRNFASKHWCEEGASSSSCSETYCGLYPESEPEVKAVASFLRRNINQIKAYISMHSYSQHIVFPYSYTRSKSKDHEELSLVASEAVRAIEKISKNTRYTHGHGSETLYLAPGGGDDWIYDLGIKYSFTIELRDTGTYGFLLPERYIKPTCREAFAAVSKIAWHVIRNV
# Experiment: Inhibition of TAFIa (hippuryl-Arg test)
# Assay type: biochemical
# Conditions: TAFIa 2 nM, hippuryl-arginine 5 mM, 45 minutes, relative to control containing the carrier; for inhibition at 0.01 µM: compound at 10 nM; for inhibition at 0.02 µM: compound at 20 nM
# Protocol: Human TAFI (4 nM) is incubated with human thrombin (10 nM) and human thrombomodulin (5 nM) in the presence of calcium (10 mM). After incubation for 20 minutes, the activation reaction is stopped by addition of PPACK (1 μM final), an irreversible thrombin inhibitor.
# The reactions take place in Hepes buffer (25 mM Hepes, 137 mM NaCl, 3.5 mM KCl)+0.1% bovine albumin, pH 7.4 at 28° C. and with stirring.
# The test compound is added to the solution of TAFIa (2 nM) and incubated for 45 minutes in the presence of hippuryl-arginine (5 mM). The reaction is stopped by addition of hydrochloric acid (1M) neutralised subsequently with sodium hydroxide (1M), and then the mixture is buffered with disodium hydroxyphosphate (1M pH 7.4). […] The reaction mixture is stirred (vortex) and then centrifuged. The supernatant is transferred to a 96-well microplate, and the absorbance is measured using a spectrophotometer at 405 nm (Spectramax plus, Molecular Devices).
# The OD value of a well containing the reagents without TAFI is subtracted from all the OD values measured. The percentage inhibition of TAFIa at a given concentration of the test compound is determined by means of the following formula: % inhibition=100−[(OD compound×100)/OD carrier]
# The compounds are evaluated at 10 nM and 20 nM under the experimental conditions described above and the results are expressed as the percentage inhibition relative to a control containing the carrier in the absence of compound.
Structure (SMILES),inhibition at 0.01 µM [%],inhibition at 0.02 µM [%]
"NCCCCC1(C(=O)O)CN(Cc2ccccc2-c2cc(Cl)ccc2Cl)CCP1(=O)O (centres unmarked) [Example 48, 3-(4-AMINOBUTYL)-1-[[2-(2,5-DICHLOROPHENYL)PHENYL]METHYL]-4-HYDROXY-4-OXO-1,4-AZAPHOSPHINANE-3-CARBOXYLIC ACID]",45,54
"NCCCCC1(C(=O)O)CN(Cc2ccccc2-c2cccc(-c3ccccc3)c2)CCP1(=O)O (centres unmarked) [Example 49, 3-(4-AMINOBUTYL)-4-HYDROXY-4-OXO-1-[[2-(3-PHENYLPHENYL)PHENYL]-METHYL]-1,4-AZAPHOSPHINANE-3-CARBOXYLIC ACID]",60,73
"NCCCCC1(C(=O)O)CN(Cc2ccccc2-c2ccc3ccccc3c2)CCP1(=O)O (centres unmarked) [Example 50, 3-(4-AMINOBUTYL)-4-HYDROXY-1-[(2-NAPHTHALEN-2-YLPHENYL)METHYL]-4-OXO-1,4-AZAPHOSPHINANE-3-CARBOXYLIC ACID]",53,66
"NCCCCC1(C(=O)O)CN(Cc2ccc(F)cc2-c2ccc(O)cc2)CCP1(=O)O (centres unmarked) [Example 104, 3-(4-AMINOBUTYL)-1-[[4-FLUORO-2-(4-HYDROXYPHENYL)PHENYL]METHYL]-4-HYDROXY-4-OXO-1,4-AZAPHOSPHINANE-3-CARBOXYLIC ACID]",37,68
"NCCCCC1(C(=O)O)CN(Cc2ccsc2-c2ccccc2)CCP1(=O)O (centres unmarked) [Example 105, 3-(4-AMINOBUTYL)-4-HYDROXY-4-OXO-1-[(2-PHENYLTHIOPHEN-3-YL)METHYL]-1,4-AZAPHOSPHINANE-3-CARBOXYLIC ACID]",44,66
"NCCCCC1(C(=O)O)CN(Cc2ccccc2-c2nccs2)CCP1(=O)O (centres unmarked) [Example 108, 3-(4-AMINOBUTYL)-4-HYDROXY-4-OXO-1-[[2-(1,3-THIAZOL-2-YL)PHENYL]-METHYL]-1,4-AZAPHOSPHINANE-3-CARBOXYLIC ACID]",25,29
"NCCCCC1(C(=O)O)CN(Cc2ccccc2-c2cccc3ccccc23)CCP1(=O)O (centres unmarked) [Example 109, 3-(4-AMINOBUTYL)-4-HYDROXY-1-[(2-NAPHTHALEN-1-YLPHENYL)METHYL]-4-OXO-1,4-AZAPHOSPHINANE-3-CARBOXYLIC ACID]",58,71
"NCCCCC1(C(=O)O)CN(Cc2ccc(Cl)cc2-c2ccc(Cl)cc2)CCP1(=O)O (centres unmarked) [Example 113, 3-(4-AMINOBUTYL)-1-[[4-CHLORO-2-(4-CHLOROPHENYL)PHENYL]METHYL]-4-HYDROXY-4-OXO-1,4-AZAPHOSPHINANE-3-CARBOXYLIC ACID]",68,90
"NCCCCC1(C(=O)O)CN(Cc2ccccc2-c2ccccc2-c2ccccc2)CCP1(=O)O (centres unmarked) [Example 114, 3-(4-AMINOBUTYL)-4-HYDROXY-4-OXO-1-[[2-(2-PHENYLPHENYL)PHENYL]-METHYL]-1,4-AZAPHOSPHINANE-3-CARBOXYLIC ACID]",42,51
"NCCCCC1(C(=O)O)CN(Cc2ccccc2-c2ccc3c(c2)OCO3)CCP1(=O)O (centres unmarked) [Example 164, 3-(4-AMINOBUTYL)-1-[[2-(1,3-BENZODIOXOL-5-YL)PHENYL]METHYL]-4-HYDROXY-4-OXO-1,4-AZAPHOSPHINANE-3-CARBOXYLIC ACID]",66,87
"COc1ccc(-c2ccccc2CN2CCP(=O)(O)C(CCCCN)(C(=O)O)C2)cn1 (centres unmarked) [Example 165, 3-(4-AMINOBUTYL)-4-HYDROXY-1-[[2-(6-METHOXYPYRIDIN-3-YL)PHENYL]-METHYL]-4-OXO-1,4-AZAPHOSPHINANE-3-CARBOXYLIC ACID]",76,91
"NCCCCC1(C(=O)O)CN(Cc2ccccc2-c2ccc(=O)[nH]c2)CCP1(=O)O (centres unmarked) [Example 166, 3-(4-AMINOBUTYL)-4-HYDROXY-4-OXO-1-[[2-(6-OXO-1H-PYRIDIN-3-YL)PHENYL]METHYL]-1,4-AZAPHOSPHINANE-3-CARBOXYLIC ACID]",66,93
"NCCCCC1(C(=O)O)CN(Cc2ccccc2-c2cnc3ccccn23)CCP1(=O)O (centres unmarked) [Example 167, 3-(4-AMINOBUTYL)-4-HYDROXY-1-[(2-IMIDAZO[1,2-A]PYRIDIN-3-YLPHENYL)-METHYL]-4-OXO-1,4-AZAPHOSPHINANE-3-CARBOXYLIC ACID]",61,67
"CC(C)c1ccccc1CN1CCP(=O)(O)C(CCCCN)(C(=O)O)C1 (centres unmarked) [Example 174, 3-(4-AMINOBUTYL)-4-HYDROXY-4-OXO-1-[(2-PROPAN-2-YLPHENYL)METHYL]-1,4-AZAPHOSPHINANE-3-CARBOXYLIC ACID]",43,51
"NCCCCC1(C(=O)O)CN(Cc2ccccc2-c2ccc(Cl)c(Cl)c2)CCP1(=O)O (centres unmarked) [Example 175, 3-(4-AMINOBUTYL)-1-[[2-(3,4-DICHLOROPHENYL)PHENYL]METHYL]-4-HYDROXY-4-OXO-1,4-AZAPHOSPHINANE-3-CARBOXYLIC ACID]",55,77
"COc1ccc(-c2cc(F)ccc2CN2CCP(=O)(O)[C@](CCCCN)(C(=O)O)C2)cc1OC [Example 179, (3S)-3-(4-AMINOBUTYL)-1-[[2-(3,4-DIMETHOXYPHENYL)-4-FLUOROPHENYL]-METHYL]-4-HYDROXY-4-OXO-1,4-AZAPHOSPHINANE-3-CARBOXYLIC ACID]",74,83
"Cc1ccc(-c2cc(F)ccc2CN2CCP(=O)(O)[C@](CCCCN)(C(=O)O)C2)cc1 [Example 180, (3S)-3-(4-AMINOBUTYL)-1-[[4-FLUORO-2-(4-METHYLPHENYL)PHENYL]-METHYL]-4-HYDROXY-4-OXO-1,4-AZAPHOSPHINANE-3-CARBOXYLIC ACID]",54,73
"NCCCC[C@@]1(C(=O)O)CN(Cc2ccccc2-c2cncnc2)CCP1(=O)O [Example 182, (3S)-3-(4-AMINOBUTYL)-4-HYDROXY-4-OXO-1-[(2-PYRIMIDIN-5-YLPHENYL)-METHYL]-1,4-AZAPHOSPHINANE-3-CARBOXYLIC ACID]",81,95
"NCCCC[C@@]1(C(=O)O)CN(Cc2ccccc2-c2cccs2)CCP1(=O)O [Example 183, (3S)-3-(4-AMINOBUTYL)-4-HYDROXY-4-OXO-1-[(2-THIOPHEN-2-YLPHENYL)-METHYL]-1,4-AZAPHOSPHINANE-3-CARBOXYLIC ACID]",73,88
"NCCCC[C@@]1(C(=O)O)CN(Cc2ccccc2-c2cccnc2)CCP1(=O)O [Example 184, (3S)-3-(4-AMINOBUTYL)-4-HYDROXY-4-OXO-1-[(2-PYRIDIN-3-YLPHENYL)-METHYL]-1,4-AZAPHOSPHINANE-3-CARBOXYLIC ACID]",67,95
"COc1cccc(-c2cc(F)ccc2CN2CCP(=O)(O)[C@](CCCCN)(C(=O)O)C2)c1 [Example 185, (3S)-3-(4-AMINOBUTYL)-1-[[4-FLUORO-2-(3-METHOXYPHENYL)PHENYL]-METHYL]-4-HYDROXY-4-OXO-1,4-AZAPHOSPHINANE-3-CARBOXYLIC ACID]",69,85
"COc1ccc(-c2cc(F)ccc2CN2CCP(=O)(O)[C@](CCCCN)(C(=O)O)C2)cc1 [Example 187, (3S)-3-(4-AMINOBUTYL)-1-[[4-FLUORO-2-(4-METHOXYPHENYL)PHENYL]-METHYL]-4-HYDROXY-4-OXO-1,4-AZAPHOSPHINANE-3-CARBOXYLIC ACID]",74,97
"Cc1ccc(-c2ccccc2CN2CCP(=O)(O)[C@](CCCCN)(C(=O)O)C2)cc1 [Example 188, (3S)-3-(4-AMINOBUTYL)-4-HYDROXY-1-[[2-(4-METHYLPHENYL)PHENYL]-METHYL]-4-OXO-1,4-AZAPHOSPHINANE-3-CARBOXYLIC ACID]",64,86
"NCCCC[C@@]1(C(=O)O)CN(Cc2ccc(F)cc2-c2ccc(F)cc2)CCP1(=O)O [Example 189, (3S)-3-(4-AMINOBUTYL)-1-[[4-FLUORO-2-(4-FLUOROPHENYL)PHENYL]METHYL]-4-HYDROXY-4-OXO-1,4-AZAPHOSPHINANE-3-CARBOXYLIC ACID]",71,78
"NCCCC[C@@]1(C(=O)O)CN(Cc2ccc(F)cc2-c2cccnc2)CCP1(=O)O [Example 190, (3S)-3-(4-AMINOBUTYL)-1-[(4-FLUORO-2-PYRIDIN-3-YLPHENYL)METHYL]-4-HYDROXY-4-OXO-1,4-AZAPHOSPHINANE-3-CARBOXYLIC ACID]",88,95
